Measurements as given in patent US20260226068A1, “IMIDAZOTRIAZINE IL-17A MODULATORS AND USES THEREOF” (DICE ALPHA, INC., priority 2023, published 2026).

How the values were obtained:
[1] = target: T1, IL-17A/F (Homo sapiens, UniProt Q16552+Q96PD4); experiment: IL-17A/F HEK-Blue cell assay (SEAP reporter); type: cell-based; settings: HEK-Blue IL-17A reporter cells, IL17A/F 5 ng/mL, 20 hours, SEAP read at A630; read-out: HEK-Blue IL17AF (IC50 for IL-17A/F inhibition)
T1 construct: purchased R&D Systems
T1 sequence (Q16552 24-155): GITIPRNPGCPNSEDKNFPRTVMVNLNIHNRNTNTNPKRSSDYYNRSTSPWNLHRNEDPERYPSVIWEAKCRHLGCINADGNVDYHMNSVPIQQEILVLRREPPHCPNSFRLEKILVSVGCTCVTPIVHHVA
T1 sequence (Q96PD4 31-163): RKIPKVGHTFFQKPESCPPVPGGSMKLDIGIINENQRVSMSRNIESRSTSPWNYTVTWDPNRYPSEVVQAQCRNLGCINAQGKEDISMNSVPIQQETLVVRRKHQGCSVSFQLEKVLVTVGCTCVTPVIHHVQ

[2] = target: T2, IL-17A/A (Homo sapiens, UniProt Q16552); experiment: IL-17A/A HEK-Blue cell assay (SEAP reporter); type: cell-based; settings: HEK-Blue IL-17A reporter cells, IL17A/A 5 ng/mL, 20 hours, SEAP read at A630; read-out: HEK-Blue IL17AA (IC50 for IL-17A/A inhibition)
T2 construct: purchased Genscript Z03228
T2 sequence (Q16552 24-155): T1 sequence (Q16552 24-155)

Structure (SMILES)	IC50 [1] [nM]	IC50 [2] [nM]
CCn1nccc1C(=O)N[C@H](c1cn2nc(C[C@H]3C[C@@H](C(F)(F)F)CNC3=O)c(CC3COCCO3)nc2n1)C1CCC(F)(F)CC1 (stereo partly drawn) [Compound 173, N-((1S)-(3-((1,4-dioxan-2-yl)methyl)-2-(((3R,5R)-2-oxo-5-(trifluoromethyl)piperidin-3-yl)methyl)imidazo[1,2-b][1,2,4]triazin-6-yl)(4,4-difluorocyclohexyl)methyl)-1-ethyl-1H-pyrazole-5-carboxamide]	> 1000	100 to 1000
CCn1nccc1C(=O)N[C@H](c1cn2nc(C[C@H]3C[C@@H](C(F)(F)F)CNC3=O)c(N(C)C3COC3)nc2n1)C1CCC(F)(F)CC1 [Compound 180, N—((S)-(4,4-difluorocyclohexyl)(3-(methyl(oxetan-3-yl)amino)-2-(((3R,5R)-2-oxo-5-(trifluoromethyl)piperidin-3-yl)methyl)imidazo[1,2-b][1,2,4]triazin-6-yl)methyl)-1-ethyl-1H-pyrazole-5-carboxamide]	> 1000	100 to 1000
O=C(N[C@H](c1cn2nc(C[C@H]3C[C@@H](C(F)(F)F)CNC3=O)c(N3CCOCC3)nc2n1)C1CCC(F)(F)CC1)OCc1cc(C(F)(F)F)on1 [Compound 181, (5-(trifluoromethyl)isoxazol-3-yl)methyl ((S)-(4,4-difluorocyclohexyl)(3-morpholino-2-(((3R,5R)-2-oxo-5-(trifluoromethyl)piperidin-3-yl)methyl)imidazo[1,2-b][1,2,4]triazin-6-yl)methyl)carbamate]	> 1000	< 100
O=C(N[C@H](c1cn2nc(C[C@H]3C[C@@H](C(F)(F)F)CNC3=O)c(C3CCOCC3)nc2n1)C1CCC(F)(F)CC1)c1ccnn1C(F)(F)F [Compound 184, N-((1S)-(4,4-difluorocyclohexyl)(2-(((3R,5R)-2-oxo-5-(trifluoromethyl)piperidin-3-yl)methyl)-3-(tetrahydro-2H-pyran-4-yl)imidazo[1,2-b][1,2,4]triazin-6-yl)methyl)-1-(trifluoromethyl)-1H-pyrazole-5-carboxamide]	> 1000	< 100
O=C(N[C@H](c1cn2nc(C[C@H]3C[C@@H](C(F)(F)F)CNC3=O)c(C3CCOCC3)nc2n1)C1CCC(F)(F)CC1)c1nonc1C(F)F [Compound 190, N-((1S)-(4,4-difluorocyclohexyl)(2-(((3R,5R)-2-oxo-5-(trifluoromethyl)piperidin-3-yl)methyl)-3-(tetrahydro-2H-pyran-4-yl)imidazo[1,2-b][1,2,4]triazin-6-yl)methyl)-4-(difluoromethyl)-1,2,5-oxadiazole-3-carboxamide]	> 1000	< 100
CCn1nccc1C(=O)N[C@H](c1cn2nc(C[C@H]3C[C@@H](C(F)(F)F)CNC3=O)c(N3CC4(CCOC4)C3)nc2n1)C1CCC(F)(F)CC1 [Compound 193, N—((S)-(4,4-difluorocyclohexyl)(2-(((3R,5R)-2-oxo-5-(trifluoromethyl)piperidin-3-yl)methyl)-3-(6-oxa-2-azaspiro[3.4]octan-2-yl)imidazo[1,2-b][1,2,4]triazin-6-yl)methyl)-1-ethyl-1H-pyrazole-5-carboxamide]	100 to 1000	< 100
CCn1nccc1C(=O)N[C@H](c1cn2nc(C[C@H]3C[C@@H](C(F)(F)F)CNC3=O)c(N3CCC(C)(O)CC3)nc2n1)C1CCC(F)(F)CC1 [Compound 194, N—((S)-(4,4-difluorocyclohexyl)(3-(4-hydroxy-4-methylpiperidin-1-yl)-2-(((3R,5R)-2-oxo-5-(trifluoromethyl)piperidin-3-yl)methyl)imidazo[1,2-b][1,2,4]triazin-6-yl)methyl)-1-ethyl-1H-pyrazole-5-carboxamide]	100 to 1000	< 100
CCn1nccc1C(=O)N[C@H](c1cn2nc(C[C@H]3C[C@@H](C(F)(F)F)CNC3=O)c(N(C)CC3(C)COC3)nc2n1)C1CCC(F)(F)CC1 [Compound 195, N—((S)-(4,4-difluorocyclohexyl)(3-(methyl((3-methyloxetan-3-yl)methyl)amino)-2-(((3R,5R)-2-oxo-5-(trifluoromethyl)piperidin-3-yl)methyl)imidazo[1,2-b][1,2,4]triazin-6-yl)methyl)-1-ethyl-1H-pyrazole-5-carboxamide]	> 1000	100 to 1000

The remaining lines, values ahead:

IC50 [1] [nM]	IC50 [2] [nM]	Structure (SMILES)
< 100	< 100	CCn1nccc1C(=O)N[C@H](c1cn2nc(C[C@H]3C[C@@H](C(F)(F)F)CNC3=O)c(CC3CCOCC3)nc2n1)[C@H]1CC[C@H](C)CC1 [Compound 179, 1-ethyl-N-((1S)-((1R,4S)-4-methylcyclohexyl)(2-(((3R,5R)-2-oxo-5-(trifluoromethyl)piperidin-3-yl)methyl)-3-((tetrahydro-2H-pyran-4-yl)methyl)imidazo[1,2-b][1,2,4]triazin-6-yl)methyl)-1H-pyrazole-5-carboxamide]
< 100	< 100	CCn1nccc1C(=O)N[C@H](c1cn2nc(C[C@H]3C[C@@H](C(F)(F)F)CNC3=O)c(C3CCC(F)(F)CC3)nc2n1)C1CCC(F)(F)CC1 [Compound 182, N-((1S)-(4,4-difluorocyclohexyl)(3-(4,4-difluorocyclohexyl)-2-(((3R,5R)-2-oxo-5-(trifluoromethyl)piperidin-3-yl)methyl)imidazo[1,2-b][1,2,4]triazin-6-yl)methyl)-1-ethyl-1H-pyrazole-5-carboxamide]
100 to 1000	< 100	O=C(N[C@H](c1cn2nc(C[C@H]3C[C@@H](C(F)(F)F)CNC3=O)c(C3CCOCC3)nc2n1)C1CCC(F)(F)CC1)OCc1cc(C(F)(F)F)on1 [Compound 183, (5-(trifluoromethyl)isoxazol-3-yl)methyl ((1S)-(4,4-difluorocyclohexyl)(2-(((3R,5R)-2-oxo-5-(trifluoromethyl)piperidin-3-yl)methyl)-3-(tetrahydro-2H-pyran-4-yl)imidazo[1,2-b][1,2,4]triazin-6-yl)methyl)carbamate]
100 to 1000	< 100	O=C(N[C@H](c1cn2nc(C[C@H]3C[C@@H](C(F)(F)F)CNC3=O)c(C3CCOCC3)nc2n1)C1CCC(F)(F)CC1)c1ccnn1C(F)F [Compound 185, N-((1S)-(4,4-difluorocyclohexyl)(2-(((3R,5R)-2-oxo-5-(trifluoromethyl)piperidin-3-yl)methyl)-3-(tetrahydro-2H-pyran-4-yl)imidazo[1,2-b][1,2,4]triazin-6-yl)methyl)-1-(difluoromethyl)-1H-pyrazole-5-carboxamide]
100 to 1000	< 100	O=C(N[C@H](c1cn2nc(C[C@H]3C[C@@H](C(F)(F)F)CNC3=O)c(C3CCOCC3)nc2n1)C1CCC(F)(F)CC1)c1ccnn1CC(F)(F)F [Compound 186, N-((1S)-(4,4-difluorocyclohexyl)(2-(((3R,5R)-2-oxo-5-(trifluoromethyl)piperidin-3-yl)methyl)-3-(tetrahydro-2H-pyran-4-yl)imidazo[1,2-b][1,2,4]triazin-6-yl)methyl)-1-(2,2,2-trifluoroethyl)-1H-pyrazole-5-carboxamide]
100 to 1000	< 100	O=C(N[C@H](c1cn2nc(C[C@H]3C[C@@H](C(F)(F)F)CNC3=O)c(C3CCOCC3)nc2n1)C1CCC(F)(F)CC1)c1ccnn1CC(F)F [Compound 187, N-((1S)-(4,4-difluorocyclohexyl)(2-(((3R,5R)-2-oxo-5-(trifluoromethyl)piperidin-3-yl)methyl)-3-(tetrahydro-2H-pyran-4-yl)imidazo[1,2-b][1,2,4]triazin-6-yl)methyl)-1-(2,2-difluoroethyl)-1H-pyrazole-5-carboxamide]
100 to 1000	< 100	O=C(N[C@H](c1cn2nc(C[C@H]3C[C@@H](C(F)(F)F)CNC3=O)c(C3CCOCC3)nc2n1)C1CCC(F)(F)CC1)c1ccnn1CCF [Compound 188, N-((1S)-(4,4-difluorocyclohexyl)(2-(((3R,5R)-2-oxo-5-(trifluoromethyl)piperidin-3-yl)methyl)-3-(tetrahydro-2H-pyran-4-yl)imidazo[1,2-b][1,2,4]triazin-6-yl)methyl)-1-(2-fluoroethyl)-1H-pyrazole-5-carboxamide]
100 to 1000	< 100	Cc1nocc1C(=O)N[C@H](c1cn2nc(C[C@H]3C[C@@H](C(F)(F)F)CNC3=O)c(C3CCOCC3)nc2n1)C1CCC(F)(F)CC1 [Compound 189, N-((1S)-(4,4-difluorocyclohexyl)(2-(((3R,5R)-2-oxo-5-(trifluoromethyl)piperidin-3-yl)methyl)-3-(tetrahydro-2H-pyran-4-yl)imidazo[1,2-b][1,2,4]triazin-6-yl)methyl)-3-methylisoxazole-4-carboxamide]
100 to 1000	< 100	O=C(N[C@H](c1cn2nc(C[C@H]3C[C@@H](C(F)(F)F)CNC3=O)c(C3CCOCC3)nc2n1)C1CCC(F)(F)CC1)c1conc1C(F)(F)F [Compound 191, N-((1S)-(4,4-difluorocyclohexyl)(2-(((3R,5R)-2-oxo-5-(trifluoromethyl)piperidin-3-yl)methyl)-3-(tetrahydro-2H-pyran-4-yl)imidazo[1,2-b][1,2,4]triazin-6-yl)methyl)-3-(trifluoromethyl)isoxazole-4-carboxamide]
100 to 1000	< 100	CCn1nccc1C(=O)N[C@H](c1cn2nc(C[C@H]3C[C@@H](C(F)(F)F)CNC3=O)c(N3CCC(F)(F)CC3)nc2n1)C1CCC(F)(F)CC1 [Compound 192, N—((S)-(4,4-difluorocyclohexyl)(3-(4,4-difluoropiperidin-1-yl)-2-(((3R,5R)-2-oxo-5-(trifluoromethyl)piperidin-3-yl)methyl)imidazo[1,2-b][1,2,4]triazin-6-yl)methyl)-1-ethyl-1H-pyrazole-5-carboxamide]
